Assays:
crabgrass = assay: Test A crabgrass; type: in vivo, Digitaria spp.; conditions: 0 to 10 scale where 0 is no effect and 10 is complete control
Method in brief: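 Visual injury score, 0 (no effect) to 10 (complete control), vs untreated controls at ~11 d in greenhouse. Pre: soil drench on sandy loam. Post: spray to runoff, 1–2 leaf stage.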

corn = assay: Test C postemergence corn; type: in vivo, Zea mays; conditions: 0 to 100 scale, 0 no effect, 100 complete control
Method in brief: (§1)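 Compounds in a non-phytotoxic solvent mixture with surfactant were sprayed postemergence on greenhouse-grown plants sized for treatment, in 60:40 sandy loam soil:potting mix. After about 14 to 21 days, injury was rated visually against untreated controls on a 0–100 scale (0 no effect, 100 complete control).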

field bindweed = assay: Test C postemergence field bindweed; type: in vivo, Convolvulus arvensis; conditions: 0 to 100 scale, 0 no effect, 100 complete control
Method in brief: as §1

surinam grass = assay: Test C postemergence surinam grass; type: in vivo, Brachiaria decumbens; conditions: 0 to 100 scale, 0 no effect, 100 complete control
Procedure: Compounds evaluated in this test were formulated in a non-phytotoxic solvent mixture which included a surfactant and applied to plants that were grown for various periods of time before treatment (postemergence application). A mixture of sandy loam soil and greenhouse potting mix in a 60:40 ratio was used for the postemergence test.
Plantings of these crops and weed species were adjusted to produce plants of appropriate size for the postemergence test. All plant species were grown using normal greenhouse practices. Crop and weed species include arrowleaf sida (Sida rhombifolia), barnyardgrass (Echinochloa crus-galli), cocklebur (Xanthium strumarium), common ragweed (Ambrosia elatior), corn (Zea mays), cotton (Gossypium hirsutum), eastern black nightshade (Solanum ptycanthum), fall panicum (Panicum dichotomiflorum), field bindweed (Convolvulus arvensis), giant foxtail (Setaria faberii), hairy beggarticks (Bidens pilosa), ivyleaf morningglory (Ipomoea hederacea), johnsongrass (Sorghum halepense), ladysthumb smartweed (Polygonum persicaria), lambsquarters (Chenopodium album), large crabgrass (Digitaria sanguinalis), purple nutsedge (Cyperus rotundus), redroot pigweed (Amaranthus retroflexus), soybean (Glycine max), surinam grass (Brachiaria decumbens), velvetleaf (Abutilon theophrasti) and wild poinsettia (Euphorbia heterophylla).
Treated plants and untreated controls were maintained in a greenhouse for approximately 14, to 21 days, after which all treated plants were compared to untreated controls and visually evaluated. Plant response ratings, summarized in Table C, were based upon a 0 to 100 scale where 0 was no effect and 100 was complete control. A dash response (−) means no test result.

Italian ryegrass = assay: Test E Italian ryegrass; type: in vivo, Lolium multiflorum; conditions: Postemergence
Procedure: (§2) Compounds evaluated in this test were formulated in a non-phytotoxic solvent mixture which included a surfactant and applied to plants that were in the 1- to 4-leaf stage (postemergence application). A mixture of sandy loam soil and greenhouse potting mix in a 60:40 ratio was used for the postemergence test.
(§3) Plantings of these crops and weed species were adjusted to produce plants of appropriate size for the postemergence test. All plant species were grown using normal greenhouse practices. Crop and weed species include annual bluegrass (Poa annua), blackgrass (Alopecurus myosuroides), black nightshade (Solanum nigra), chickweed (Stellaria media), common poppy (Papaver rhoeas), deadnettle (Lamium amplexicaule), downy brome (Bromus tectorum), field violet (Viola arvensis), galium (Galium aparine), green foxtail (Setaria viridis), Italian ryegrass (Lolium multiflorum), jointed goatgrass (Aegilops cylindrica), kochia (Kochia scoparia), lambsquarters (Chenopodium album), littleseed canarygrass (Phalaris minor), rape (Brassica napus), redroot pigweed (Amaranthus retroflexus), Russian thistle (Salsola kali), scentless chamomile (Matricaria inodora), spring barley (Hordeum vulgare), sugar beet (Beta vulgaris), sunflower (Helianthus annuus), ivyleaf speedwell (Veronica hederaefolia), spring wheat (Triticum aestivum), winter wheat (Triticum aestivum), wild buckwheat (Polygonum convolvulus), wild mustard (Sinapis arvensis), wild oat (Avena fatua), windgrass (Apera spica-venti) and winter barley (Hordeum vulgare).
(§4) Treated plants and untreated controls were maintained in a greenhouse for approximately 21 to 28 days, after which all treated plants were compared to untreated controls and visually evaluated. […] A dash response (-) means no test result.

littleseed canarygrass [1] = assay: Test E littleseed canarygrass; type: in vivo, Phalaris minor; conditions: Postemergence
Procedure: as §2, §3, §4

winter barley = assay: Test E winter barley; type: in vivo, Hordeum vulgare; conditions: Postemergence
Procedure: as §2, §3, §4

annual bluegrass = assay: Test E annual bluegrass; type: in vivo, Poa annua; conditions: Preemergence
downy brome = assay: Test E downy brome; type: in vivo, Bromus tectorum; conditions: Preemergence
lambsquarters = assay: Test E lambsquarters; type: in vivo, Chenopodium album; conditions: Preemergence
littleseed canarygrass [2] = assay: Test E littleseed canarygrass; type: in vivo, Phalaris minor; conditions: Preemergence
rape = assay: Test E rape; type: in vivo, Brassica napus; conditions: Preemergence
Russian thistle = assay: Test E Russian thistle; type: in vivo, Salsola kali; conditions: Preemergence
spring barley = assay: Test E spring barley; type: in vivo, Hordeum vulgare; conditions: Preemergence
sugar beet = assay: Test E sugar beet; type: in vivo, Beta vulgaris; conditions: Preemergence
sunflower = assay: Test E sunflower; type: in vivo, Helianthus annuus; conditions: Preemergence
[3] = Rate 250 g/ha, 0 to 100 scale (0 no effect, 100 complete control)
[4] = Rate 62 g/ha, 0 to 100 scale, 0 no effect, 100 complete control
[5] = Rate 125 g/ha, 0 to 100 scale (0 no effect, 100 complete control)
[6] = Rate 500 g/ha, 0 to 100 scale, 0 no effect, 100 complete control
[7] = Rate 500 g/ha, 0 to 100 scale where 0 is no effect and 100 is complete control

Cc1ccccc1Cn1c(=O)on(C(=O)N(c2ccc(Cl)cc2)C(C)C)c1=O [Compound 136]
10: Plant response rating, Crabgrass (crabgrass; Pre-emergence, Rate 2000 g/ha)
6: Plant response rating, Crabgrass (crabgrass; Postemergence, Rate 1000 g/ha)

CCOC(=O)Cn1c(=O)on(C(=O)N(c2ccc(F)cc2)C(C)C)c1=O [Compound 128]
0: Plant response rating, Crabgrass (crabgrass; Postemergence, Rate 1000 g/ha) | Plant response rating, Crabgrass (crabgrass; Pre-emergence, Rate 2000 g/ha)

CCn1c(=O)on(C(=O)N(c2ccc(F)cc2)C(C)C)c1=O [Compound 107]
100: Plant response rating, Lambsquarters (lambsquarters; [4]) | Plant response rating, Lambsquarters (lambsquarters; [5]) | Plant response rating, Lambsquarters (lambsquarters; Rate 250 g/ha, 0 to 100 scale) | Plant response rating, Rape (rape; Rate 250 g/ha, 0 to 100 scale) | Plant response rating, Sugar beet (sugar beet; [5]) | Plant response rating, Sugar beet (sugar beet; Rate 250 g/ha, 0 to 100 scale)
0: Plant response rating, Corn (corn; Rate 140 g/ha) | Plant response rating Field bindweed (field bindweed; Rate 140 g/ha) | Plant response rating Field bindweed (field bindweed; Rate 280 g/ha) | Plant response rating, I. Ryegrass (Italian ryegrass; Rate 62 g/ha, 0 to 100 scale) | Plant response rating, Russian thistle (Russian thistle; [4]) | Plant response rating, Russian thistle (Russian thistle; [5])
80: Plant response rating, Surinam grass (surinam grass; Rate 560 g/ha) | Plant response rating, Annual bluegras (annual bluegrass; [5]) | Plant response rating, LS canarygrass (littleseed canarygrass [2]; [5]) | Plant response rating, LS canarygrass (littleseed canarygrass [2]; Rate 250 g/ha, 0 to 100 scale)
75: Plant response rating, Downy brome (downy brome; Rate 250 g/ha, 0 to 100 scale)
10: Plant response rating, Surinam grass (surinam grass; Rate 140 g/ha) | Plant response rating, Barley (winter) (winter barley; [3]) | Plant response rating, Russian thistle (Russian thistle; Rate 250 g/ha, 0 to 100 scale)
20: Plant response rating, LS canarygrass (littleseed canarygrass [1]; Rate 125 g/ha, 0 to 100 scale) | Plant response rating, Sunflower (sunflower; [4])
50: Plant response rating, I. Ryegrass (Italian ryegrass; Rate 125 g/ha, 0 to 100 scale) | Plant response rating, Downy brome (downy brome; [4]) | Plant response rating, LS canarygrass (littleseed canarygrass [2]; [4])
60: Plant response rating, Corn (corn; Rate 1120 g/ha) | Plant response rating Field bindweed (field bindweed; Rate 1120 g/ha) | Plant response rating, LS canarygrass (littleseed canarygrass [1]; [3]) | Plant response rating, Downy brome (downy brome; [5]) | Plant response rating, Rape (rape; [4])
40: Plant response rating, Sunflower (sunflower; Rate 250 g/ha, 0 to 100 scale)
95: Plant response rating, Surinam grass (surinam grass; Rate 1120 g/ha)
15: Plant response rating, LS canarygrass (littleseed canarygrass [1]; Rate 62 g/ha, 0 to 100 scale)
70: Plant response rating, Surinam grass (surinam grass; Rate 280 g/ha) | Plant response rating, Annual bluegras (annual bluegrass; [4]) | Plant response rating, Rape (rape; [5]) | Plant response rating, Spring Barley (spring barley; [5]) | Plant response rating, Spring Barley (spring barley; Rate 250 g/ha, 0 to 100 scale) | Plant response rating, Sugar beet (sugar beet; [4])
55: Plant response rating, Corn (corn; Rate 560 g/ha)
30: Plant response rating Field bindweed (field bindweed; Rate 560 g/ha) | Plant response rating, I. Ryegrass (Italian ryegrass; [3]) | Plant response rating, Spring Barley (spring barley; [4]) | Plant response rating, Sunflower (sunflower; [5])
85: Plant response rating, Annual bluegras (annual bluegrass; Rate 250 g/ha, 0 to 100 scale)
5: Plant response rating, Corn (corn; Rate 280 g/ha) | Plant response rating, Barley (winter) (winter barley; Rate 62 g/ha, 0 to 100 scale) | Plant response rating, Barley (winter) (winter barley; Rate 125 g/ha, 0 to 100 scale)

CCn1c(=O)on(C(=O)N(c2ccc(F)cc2F)C(C)C)c1=O [Compound 116]
60: Plant response rating, Annual bluegras (annual bluegrass; [5]) | Plant response rating, Downy brome (downy brome; [5]) | Plant response rating, Rape (rape; [5])
85: Plant response rating, Annual bluegras (annual bluegrass; Rate 250 g/ha, 0 to 100 scale) | Plant response rating, Sugar beet (sugar beet; Rate 250 g/ha, 0 to 100 scale)
40: Plant response rating, LS canarygrass (littleseed canarygrass [1]; [3]) | Plant response rating, Spring Barley (spring barley; [5]) | Plant response rating, Sunflower (sunflower; Rate 250 g/ha, 0 to 100 scale)
20: Plant response rating, Corn (corn; Rate 1120 g/ha)
0: Plant response rating, Corn (corn; Rate 140 g/ha) | Plant response rating, Corn (corn; Rate 280 g/ha) | Plant response rating Field bindweed (field bindweed; Rate 140 g/ha) | Plant response rating Field bindweed (field bindweed; Rate 280 g/ha) | Plant response rating, Surinam grass (surinam grass; Rate 140 g/ha) | Plant response rating, Surinam grass (surinam grass; Rate 280 g/ha) | Plant response rating, I. Ryegrass (Italian ryegrass; Rate 62 g/ha, 0 to 100 scale) | Plant response rating, I. Ryegrass (Italian ryegrass; [6]) | Plant response rating, Barley (winter) (winter barley; Rate 62 g/ha, 0 to 100 scale) | Plant response rating, Russian thistle (Russian thistle; [5]) | Plant response rating, Russian thistle (Russian thistle; Rate 250 g/ha, 0 to 100 scale)
15: Plant response rating, Corn (corn; Rate 560 g/ha) | Plant response rating, Sunflower (sunflower; [5])
30: Plant response rating, LS canarygrass (littleseed canarygrass [1]; Rate 125 g/ha, 0 to 100 scale)
95: Plant response rating, Sugar beet (sugar beet; [7])
80: Plant response rating, LS canarygrass (littleseed canarygrass [2]; Rate 250 g/ha, 0 to 100 scale)
100: Plant response rating, Annual bluegras (annual bluegrass; [7]) | Plant response rating, Lambsquarters (lambsquarters; [5]) | Plant response rating, Lambsquarters (lambsquarters; Rate 250 g/ha, 0 to 100 scale) | Plant response rating, Lambsquarters (lambsquarters; [7]) | Plant response rating, LS canarygrass (littleseed canarygrass [2]; [7]) | Plant response rating, Rape (rape; Rate 250 g/ha, 0 to 100 scale) | Plant response rating, Rape (rape; [7]) | Plant response rating, Spring Barley (spring barley; [7])
10: Plant response rating, LS canarygrass (littleseed canarygrass [1]; Rate 62 g/ha, 0 to 100 scale) | Plant response rating, Barley (winter) (winter barley; Rate 125 g/ha, 0 to 100 scale) | Plant response rating, Barley (winter) (winter barley; [3]) | Plant response rating, Barley (winter) (winter barley; [6])
90: Plant response rating, Surinam grass (surinam grass; Rate 1120 g/ha)
50: Plant response rating Field bindweed (field bindweed; Rate 560 g/ha) | Plant response rating Field bindweed (field bindweed; Rate 1120 g/ha) | Plant response rating, I. Ryegrass (Italian ryegrass; Rate 125 g/ha, 0 to 100 scale) | Plant response rating, LS canarygrass (littleseed canarygrass [1]; [6]) | Plant response rating, Downy brome (downy brome; Rate 250 g/ha, 0 to 100 scale) | Plant response rating, Russian thistle (Russian thistle; [7]) | Plant response rating, Sugar beet (sugar beet; [5])
75: Plant response rating, Spring Barley (spring barley; Rate 250 g/ha, 0 to 100 scale)
70: Plant response rating, I. Ryegrass (Italian ryegrass; [3]) | Plant response rating, Downy brome (downy brome; [7]) | Plant response rating, LS canarygrass (littleseed canarygrass [2]; [5]) | Plant response rating, Sunflower (sunflower; [7])

— patent US6737383B1, “Herbicidal oxadiazolidines” (priority 1999, dated 2004)
